In series [1] the test system is Peripheral blood mononuclear cells (PBMC). The experiment in a line: Cytokine Induction in Human Cells (in vitro human blood cell system, IFN and TNF secreted into culture media). The arrangement: key to Lowest Effective Concentration (μM) Tumor Necrosis Factor / Lowest Effective Concentration (μM) Interferon: *: no induction was seen at any of the tested concentrations. The note with it: 18 to 24 hours, tested 30-0.014 μM. Type of series: cell-based. An outline of the steps: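 Human donor PBMC (2×10^6 cells/mL, RPMI complete) incubated 18–24 h at 37 °C, 5% CO2 with compound, 3-fold dilutions 30–0.014 μM, ≤1% DMSO. IFN-α measured by ELISA, TNF-α by ELISA or IGEN immunoassay in supernatants (pg/mL). Value is lowest concentration inducing each cytokine.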

Setting [2] is: Homo sapiens, PBMC, lowest concentration found to induce interferon (α), ELISA, read-out: Lowest Effective Concentration (μM) Interferon.
[3] abbreviates: Homo sapiens, PBMC, lowest concentration found to induce tumor necrosis factor (α), ELISA or IGEN assay, read-out: Lowest Effective Concentration (μM) Tumor Necrosis Factor.
The mark [4] stands for this setting: lowest concentration found to induce interferon (α), ELISA.
[5] abbreviates: lowest concentration found to induce tumor necrosis factor (α), ELISA or IGEN assay.

Like-named read-outs stand apart in the source and are kept apart here.

`Nc1nc2ccccc2c2c1ncn2CCOCC#Cc1ccccc1C(F)(F)F` [Example 10, 1-[2-({3-[2-(Trifluoromethyl)phenyl]-2-propynyl}oxy)ethyl]-1H-imidazo[4,5-c]quinolin-4-amine]: the melting point lay within 154 to 155 °C. The minimal effective concentration in series [1] (setting [2]) worked out at 1.11 µM. Further, the minimal effective concentration in series [1] (setting [3]) was determined as 10 µM.
On to `CCCCCCCCc1nc2c(N)nc3ccccc3c2n1CCOCc1ccccc1` [Example 128, 1-[2-(Benzyloxy)ethyl]-2-octyl-1H-imidazo[4,5-c]quinolin-4-amine], for which the melting point fell in the range of 110 to 111 °C. Also, in series [1] (setting [4]), the “Lowest Effective Concentration (μM) Interferon” value is on record as “*”. Besides, the “Lowest Effective Concentration (μM) Tumor Necrosis Factor” value in series [1] (setting [5]) was “*”.
The compound `Nc1nc2ccccc2c2c1ncn2CCOCC#Cc1ccccc1` [Example 3, 1-{2-[(3-Phenyl-2-propynyl)oxy]ethyl}-1H-imidazo[4,5-c]quinolin-4-amine] registered a melting point of 196 to 197 °C. Moreover, the minimal effective concentration in series [1] (setting [2]) came to 0.12 µM. In addition, the minimal effective concentration in series [1] (setting [3]) worked out at 3.33 µM.
`N#Cc1ccccc1C#CCOCCn1cnc2c(N)nc3ccccc3c21` [Example 2, 2-{3-[2-(4-Amino-1H-imidazo[4,5-c]quinolin-1-yl)ethoxy]-1-propynyl}benzonitrile] yielded a melting point of 180 to 183 °C. In series [1] (setting [2]), the minimal effective concentration is 1.11 µM. Moreover, the “Lowest Effective Concentration (μM) Tumor Necrosis Factor” value in series [1] (setting [5]) was “*”.
In the case of `Cl.Nc1nc2ccccc2c2c1ncn2CCOCC#Cc1ccccc1` [Example 4, 1-{2-[(3-Phenyl-2-propynyl)oxy]ethyl}-1H-imidazo[4,5-c]quinolin-4-amine Hydrochloride], the melting point fell in the range of 231 to 236 °C. The minimal effective concentration in series [1] (lowest concentration found to induce interferon (α), ELISA, read-out: Lowest Effective Concentration (μM) Interferon) amounted to 0.12 µM. Moreover, in series [1] (setting [5]), the “Lowest Effective Concentration (μM) Tumor Necrosis Factor” value is “*”.
Regarding `Nc1nc2ccccc2c2c1ncn2COCc1ccccc1` [Example 113, 1-[(Benzyloxy)methyl]-1H-imidazo[4,5-c]quinolin-4-amine], the melting point was in the range of 168 to 172 °C. Moreover, in series [1] (setting [2]), the minimal effective concentration is 1.11 µM. Besides, in series [1] (setting [5]), the “Lowest Effective Concentration (μM) Tumor Necrosis Factor” value is “*”.
Taken in the same sequence, the figures for `N#Cc1ccc(COCCn2cnc3c(N)nc4ccccc4c32)cc1` [Example 19, 4-{[2-(4-Amino-1H-imidazo[4,5-c]quinolin-1-yl)ethoxy]methyl}benzonitrile] were 238.1 to 239.2 °C, 0.37 µM and “*”.
Compound `COCCc1nc2c(N)nc3ccccc3c2n1CCOCC#Cc1ccccc1` [Example 120, 2-(Methoxyethyl)-1-{2-[(3-phenylprop-2-ynyl)oxy]ethyl}-1H-imidazo[4,5-c]quinolin-4-amine] showed a melting point of 134.5 to 135.5 °C. Further, the minimal effective concentration in series [1] (setting [2]) worked out at 0.01 µM. Further, the minimal effective concentration in series [1] (setting [3]) was 0.01 µM.
Regarding `Cc1nc2c(N)nc3ccccc3c2n1CCOCCCc1ccccc1` [Example 119, 2-Methyl-1-[2-(3-phenylpropoxy)ethyl]-1H-imidazo[4,5-c]quinolin-4-amine], the melting point was in the range of 129.7 to 130.7 °C. In addition, the minimal effective concentration in series [1] (setting [2]) worked out at 0.01 µM. The minimal effective concentration in series [1] (setting [3]) was 0.12 µM.
On to `CCOCc1nc2c(N)nc3ccccc3c2n1CCOCC#Cc1ccccc1` [Example 122, 2-(Ethoxymethyl)-1-{2-[(3-phenylprop-2-ynyl)oxy]ethyl}-1H-imidazo[4,5-c]quinolin-4-amine], for which the melting point was 110.8 to 111.7 °C. Further, the minimal effective concentration in series [1] (setting [2]) was 0.01 µM. Also, in series [1] (setting [3]), the minimal effective concentration came to 0.12 µM.
Regarding `Cc1nc2c(N)nc3ccccc3c2n1CCOCc1ccccc1` [Example 127, 1-[2-(Benzyloxy)ethyl]-2-methyl-1H-imidazo[4,5-c]quinolin-4-amine], the melting point was 159 to 160 °C. In addition, the minimal effective concentration in series [1] (setting [2]) amounted to 0.01 µM. For the same compound, the minimal effective concentration in series [1] (setting [3]) came to 0.12 µM.
`Cc1nc2c(N)nc3ccccc3c2n1CCCOCC#Cc1ccccc1` [Example 147, 2-Methyl-1-{3-[(3-phenylprop-2-ynyl)oxy]propyl}-H-imidazo[4,5-c]quinolin-4-amine] gave a melting point of 160 to 161.6 °C. For the same compound, the minimal effective concentration in series [1] (setting [2]) was 0.37 µM. For the same compound, the minimal effective concentration in series [1] (setting [3]) was 0.37 µM.
Regarding `CCCCc1nc2c(N)nc3ccccc3c2n1CCOCC#Cc1ccccc1` [Example 123, 2-Butyl-1-{2-[(3-phenylprop-2-ynyl)oxy]ethyl}-1H-imidazo[4,5-c]quinolin-4-amine], the melting point is 133 to 140 °C. In addition, in series [1] (setting [2]), the minimal effective concentration turned out to be 0.12 µM. Also, the minimal effective concentration in series [1] (setting [3]) was determined as 10 µM.
For `CCCCc1nc2c(N)nc3ccccc3c2n1CCOCc1ccccc1` [Example 126, 1-[2-(Benzyloxy)ethyl]-2-butyl-1H-imidazo[4,5-c]quinolin-4-amine], in that order: 133 to 135 °C, 0.04 µM and 0.04 µM.
Turning to `Nc1nc2ccccc2c2c1nc(C1CCCC1)n2CCOc1ccccc1` [Example 135, 2-Cyclopentyl-1-(2-phenoxyethyl)-1H-imidazo[4,5-c]quinolin-4-amine], the melting point was in the range of 216 to 217.9 °C. In addition, the “Lowest Effective Concentration (μM) Interferon” value in series [1] (setting [4]) was “*”. In addition, the “Lowest Effective Concentration (μM) Tumor Necrosis Factor” value in series [1] (setting [5]) is “*”.
On to `CC(C)c1nc2c(N)nc3ccccc3c2n1CCOc1ccccc1` [Example 131, 2-Isopropyl-1-(2-phenoxyethyl)-1H-imidazo[4,5-c]quinolin-4-amine], for which the melting point lay in the range of 229 to 231 °C. For the same compound, the minimal effective concentration in series [1] (setting [3]) is 10 µM. Besides, the “Lowest Effective Concentration (μM) Interferon” value in series [1] (setting [4]) is “*”.
For `CNS(=O)(=O)c1ccc(C)c(CCCOCCn2cnc3c(N)nc4ccccc4c32)c1` [Example 6, N^1,4-Dimethyl-3-{3-[2-(4-amino-1H-imidazo[4,5-c]quinolin-1-yl)ethoxy]propyl}-1-benzensulfonamide], the melting point lay within 207 to 209 °C. Moreover, the minimal effective concentration in series [1] (setting [2]) was determined as 0.12 µM. Moreover, the “Lowest Effective Concentration (μM) Tumor Necrosis Factor” value in series [1] (setting [5]) is “*”.
In turn, `CC[C@H](COCC#Cc1ccccc1)n1cnc2c(N)nc3ccccc3c21` [Example 108, 1-((1R)-1-{[(3-Phenylprop-2-ynyl)oxy]methyl}propyl)-1H-imidazo[4,5-c]quinolin-4-amine] yielded a melting point of 63 to 67 °C. Also, the minimal effective concentration in series [1] (setting [2]) was 0.00017 µM. Further, the minimal effective concentration in series [1] (setting [3]) was determined as 0.04 µM.
With `CCC(COCc1cccc(Cl)c1)n1cnc2c(N)nc3ccccc3c21` (stereo not drawn) [Example 17, 1-(1-{[(3-Chlorobenzyl)oxy]methyl}propyl)-1H-imidazo[4,5-c]quinolin-4-amine], the melting point was 60 to 62 °C. In addition, the minimal effective concentration in series [1] (setting [2]) stood at 0.12 µM. For the same compound, in series [1] (setting [3]), the minimal effective concentration was determined as 0.37 µM.
Taken in the same sequence, the figures for `CCCCc1nc2c(N)nc3ccccc3c2n1CCOCCCc1ccccc1` [Example 124, 2-Butyl-1-[2-(3-phenylpropoxy)ethyl]-1H-imidazo[4,5-c]quinolin-4-amine] were 80.8 to 81.3 °C, 1.11 µM and 10 µM.
As to `Nc1nc2ccccc2c2c1nc(COc1ccccc1)n2CCOc1ccccc1` [Example 133, 1-(2-Phenoxyethyl)-2-(phenoxymethyl)-1H-imidazo[4,5-c]quinolin-4-amine], the melting point lay within 168.5 to 170 °C. Moreover, the minimal effective concentration in series [1] (setting [2]) came to 3.33 µM. Also, in series [1] (setting [5]), the “Lowest Effective Concentration (μM) Tumor Necrosis Factor” value is on record as “*”.
Take `Nc1nc2ccccc2c2c1ncn2CCOCC#Cc1ccc(Oc2ccccc2)cc1` [Example 9, 1-(2-{[3-(4-Phenoxyphenyl)-2-propynyl]oxy}ethyl)-1H-imidazo[4,5-c]quinolin-4-amine]: the melting point lay within 146 to 148 °C. The “Lowest Effective Concentration (μM) Interferon” value in series [1] (setting [4]) is on record as “*”. Moreover, in series [1] (setting [5]), the “Lowest Effective Concentration (μM) Tumor Necrosis Factor” value is on record as “*”.

The values are drawn from US6989389B2, “Aryl ether substituted imidazoquinolines” (3M Innovative Properties Co., priority 2000, dated 2006).
